Assays:
Cannabinoid receptor 1 = Cannabinoid receptor 1 (Homo sapiens, UniProt P21554); type: functional, cell-based
[1] = target: cGMP-inhibited 3',5'-cyclic phosphodiesterase 3A (Homo sapiens, UniProt Q14432); type: functional
[2] = target: Sodium-dependent noradrenaline transporter (Homo sapiens, UniProt P23975)
[3] = target: T1, Alpha-2B adrenergic receptor (Homo sapiens, UniProt P18089)
T1 sequence (P18089 whole entry): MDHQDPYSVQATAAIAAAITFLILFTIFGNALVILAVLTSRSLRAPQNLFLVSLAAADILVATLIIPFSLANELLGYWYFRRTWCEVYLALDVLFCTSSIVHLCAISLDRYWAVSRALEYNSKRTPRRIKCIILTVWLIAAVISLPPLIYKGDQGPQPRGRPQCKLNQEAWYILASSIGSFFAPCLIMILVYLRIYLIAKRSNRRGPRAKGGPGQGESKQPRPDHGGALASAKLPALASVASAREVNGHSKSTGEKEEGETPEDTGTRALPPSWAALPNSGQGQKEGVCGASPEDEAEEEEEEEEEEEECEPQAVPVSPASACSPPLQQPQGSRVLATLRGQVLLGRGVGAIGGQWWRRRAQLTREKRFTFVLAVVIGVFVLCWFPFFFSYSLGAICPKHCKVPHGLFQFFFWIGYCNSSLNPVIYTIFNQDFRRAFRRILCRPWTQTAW

[4] = target: T2, Alpha-2A adrenergic receptor (Homo sapiens, UniProt P08913); type: functional, cell-based
T2 sequence (P08913 whole entry): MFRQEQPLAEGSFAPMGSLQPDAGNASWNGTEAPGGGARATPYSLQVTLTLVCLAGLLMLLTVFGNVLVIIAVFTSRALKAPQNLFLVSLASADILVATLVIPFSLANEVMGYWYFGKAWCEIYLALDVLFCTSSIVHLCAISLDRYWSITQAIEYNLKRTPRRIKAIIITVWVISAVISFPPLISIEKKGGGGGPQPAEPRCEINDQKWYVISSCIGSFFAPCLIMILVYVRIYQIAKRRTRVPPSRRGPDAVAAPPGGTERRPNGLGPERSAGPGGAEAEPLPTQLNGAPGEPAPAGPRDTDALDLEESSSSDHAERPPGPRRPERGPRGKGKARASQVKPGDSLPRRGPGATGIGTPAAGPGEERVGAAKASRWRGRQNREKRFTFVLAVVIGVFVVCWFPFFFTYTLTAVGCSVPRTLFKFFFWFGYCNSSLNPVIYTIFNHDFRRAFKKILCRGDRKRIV

[5] = target: Glutamate receptor ionotropic, NMDA 1 (Rattus norvegicus, UniProt P35439)
[6] = target: T3, Alpha-1A adrenergic receptor (Homo sapiens, UniProt P35348); type: functional, cell-based
T3 sequence (P35348 whole entry): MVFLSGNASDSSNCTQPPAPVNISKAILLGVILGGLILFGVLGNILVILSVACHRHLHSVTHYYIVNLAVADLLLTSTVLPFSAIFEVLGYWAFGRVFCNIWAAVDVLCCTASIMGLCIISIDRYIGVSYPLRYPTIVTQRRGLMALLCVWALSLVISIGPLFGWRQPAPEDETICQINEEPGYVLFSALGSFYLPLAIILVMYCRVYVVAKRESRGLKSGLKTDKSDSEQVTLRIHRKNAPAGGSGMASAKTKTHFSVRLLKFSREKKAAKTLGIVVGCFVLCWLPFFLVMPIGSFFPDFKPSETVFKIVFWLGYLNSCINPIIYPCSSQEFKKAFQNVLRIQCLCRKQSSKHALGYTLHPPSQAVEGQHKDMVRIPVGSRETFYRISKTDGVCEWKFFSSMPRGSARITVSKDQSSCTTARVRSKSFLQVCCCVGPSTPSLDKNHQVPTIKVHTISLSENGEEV

Motilin receptor = Motilin receptor (Homo sapiens, UniProt O43193)
Chain of Motilin receptor (O43193 whole entry): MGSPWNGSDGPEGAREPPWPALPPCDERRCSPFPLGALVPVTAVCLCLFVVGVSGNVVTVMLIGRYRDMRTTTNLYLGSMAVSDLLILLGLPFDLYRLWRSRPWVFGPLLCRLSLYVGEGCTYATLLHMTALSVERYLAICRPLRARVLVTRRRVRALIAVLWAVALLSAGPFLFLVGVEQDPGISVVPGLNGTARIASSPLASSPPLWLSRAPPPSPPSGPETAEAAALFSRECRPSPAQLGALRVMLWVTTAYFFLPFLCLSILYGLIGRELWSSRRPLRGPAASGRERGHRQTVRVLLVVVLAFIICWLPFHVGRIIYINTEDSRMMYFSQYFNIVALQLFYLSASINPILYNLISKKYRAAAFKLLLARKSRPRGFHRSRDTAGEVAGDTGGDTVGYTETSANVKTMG

Adenosine receptor A1 = target: T4, Adenosine receptor A1 (Homo sapiens, UniProt P30542)
T4 sequence (P30542 whole entry): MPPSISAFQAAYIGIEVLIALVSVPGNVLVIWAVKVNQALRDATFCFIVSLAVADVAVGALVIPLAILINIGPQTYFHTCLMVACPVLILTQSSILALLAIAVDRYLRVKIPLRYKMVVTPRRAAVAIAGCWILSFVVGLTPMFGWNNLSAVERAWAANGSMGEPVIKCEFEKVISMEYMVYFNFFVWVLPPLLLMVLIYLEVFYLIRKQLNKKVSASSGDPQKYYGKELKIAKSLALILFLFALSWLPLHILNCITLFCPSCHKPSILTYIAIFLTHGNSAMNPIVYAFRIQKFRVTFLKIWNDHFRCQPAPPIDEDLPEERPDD

[7] = target: T5, 5-hydroxytryptamine receptor 3A (Homo sapiens, UniProt P46098); type: functional
T5 sequence (P46098 whole entry): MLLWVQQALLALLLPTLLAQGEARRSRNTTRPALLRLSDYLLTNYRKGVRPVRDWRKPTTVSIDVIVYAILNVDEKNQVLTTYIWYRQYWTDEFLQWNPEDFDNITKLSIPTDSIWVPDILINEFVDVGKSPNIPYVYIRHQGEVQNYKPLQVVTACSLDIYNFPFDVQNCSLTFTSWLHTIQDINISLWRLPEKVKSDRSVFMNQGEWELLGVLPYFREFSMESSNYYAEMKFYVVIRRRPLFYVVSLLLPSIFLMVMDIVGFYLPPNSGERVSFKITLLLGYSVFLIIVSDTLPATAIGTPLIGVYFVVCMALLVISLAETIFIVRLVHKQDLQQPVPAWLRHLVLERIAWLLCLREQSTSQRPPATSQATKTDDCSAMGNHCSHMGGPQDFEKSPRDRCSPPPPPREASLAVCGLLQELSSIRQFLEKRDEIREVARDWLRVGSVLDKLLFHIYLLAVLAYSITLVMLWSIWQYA

[8] = target: Voltage-gated inwardly rectifying potassium channel KCNH2 (Homo sapiens, UniProt Q12809); type: functional; settings: read-out: AC50
Chain of Voltage-gated inwardly rectifying potassium channel KCNH2 (Q12809 whole entry): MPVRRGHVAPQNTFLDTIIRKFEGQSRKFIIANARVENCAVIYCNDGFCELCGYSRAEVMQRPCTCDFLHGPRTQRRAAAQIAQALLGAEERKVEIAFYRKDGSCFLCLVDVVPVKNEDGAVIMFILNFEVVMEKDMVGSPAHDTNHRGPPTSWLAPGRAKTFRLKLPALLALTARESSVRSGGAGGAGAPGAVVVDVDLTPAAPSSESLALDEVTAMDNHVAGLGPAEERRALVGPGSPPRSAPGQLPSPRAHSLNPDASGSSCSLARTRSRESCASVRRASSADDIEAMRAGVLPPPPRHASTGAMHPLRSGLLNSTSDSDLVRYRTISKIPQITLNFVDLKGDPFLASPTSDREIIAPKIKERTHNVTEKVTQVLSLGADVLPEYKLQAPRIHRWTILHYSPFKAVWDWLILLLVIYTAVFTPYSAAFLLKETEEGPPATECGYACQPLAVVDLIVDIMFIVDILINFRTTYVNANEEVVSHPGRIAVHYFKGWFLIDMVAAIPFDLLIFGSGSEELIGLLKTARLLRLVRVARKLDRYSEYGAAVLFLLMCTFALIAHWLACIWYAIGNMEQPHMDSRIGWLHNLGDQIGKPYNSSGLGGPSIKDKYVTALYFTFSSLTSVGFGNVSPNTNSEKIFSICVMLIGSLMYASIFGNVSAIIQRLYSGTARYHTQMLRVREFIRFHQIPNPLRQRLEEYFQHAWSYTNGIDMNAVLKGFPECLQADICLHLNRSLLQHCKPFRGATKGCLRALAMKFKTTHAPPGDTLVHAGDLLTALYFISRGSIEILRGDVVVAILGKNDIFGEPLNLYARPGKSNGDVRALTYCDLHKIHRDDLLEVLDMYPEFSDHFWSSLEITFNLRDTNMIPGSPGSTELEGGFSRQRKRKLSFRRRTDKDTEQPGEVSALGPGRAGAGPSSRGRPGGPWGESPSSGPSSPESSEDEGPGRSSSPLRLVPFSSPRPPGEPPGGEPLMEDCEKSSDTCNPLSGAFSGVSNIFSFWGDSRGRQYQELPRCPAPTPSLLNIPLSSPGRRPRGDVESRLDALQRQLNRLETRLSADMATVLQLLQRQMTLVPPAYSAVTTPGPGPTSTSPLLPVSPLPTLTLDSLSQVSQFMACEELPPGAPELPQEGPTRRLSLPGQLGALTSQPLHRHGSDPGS

Thromboxane A2 receptor = target: T6, Thromboxane A2 receptor (Homo sapiens, UniProt P21731)
T6 sequence (P21731 whole entry): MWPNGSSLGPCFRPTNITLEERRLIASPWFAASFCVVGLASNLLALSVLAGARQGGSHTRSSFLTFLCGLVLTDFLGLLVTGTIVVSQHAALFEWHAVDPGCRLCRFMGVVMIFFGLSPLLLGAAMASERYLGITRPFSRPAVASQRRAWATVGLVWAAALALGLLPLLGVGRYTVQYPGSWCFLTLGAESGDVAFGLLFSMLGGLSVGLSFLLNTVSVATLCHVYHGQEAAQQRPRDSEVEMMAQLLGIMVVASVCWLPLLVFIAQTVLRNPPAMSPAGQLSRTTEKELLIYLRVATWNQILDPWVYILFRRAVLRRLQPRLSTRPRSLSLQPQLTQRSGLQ
Also: assay procedure not described here.

Chain of Sodium-dependent noradrenaline transporter (P23975 whole entry): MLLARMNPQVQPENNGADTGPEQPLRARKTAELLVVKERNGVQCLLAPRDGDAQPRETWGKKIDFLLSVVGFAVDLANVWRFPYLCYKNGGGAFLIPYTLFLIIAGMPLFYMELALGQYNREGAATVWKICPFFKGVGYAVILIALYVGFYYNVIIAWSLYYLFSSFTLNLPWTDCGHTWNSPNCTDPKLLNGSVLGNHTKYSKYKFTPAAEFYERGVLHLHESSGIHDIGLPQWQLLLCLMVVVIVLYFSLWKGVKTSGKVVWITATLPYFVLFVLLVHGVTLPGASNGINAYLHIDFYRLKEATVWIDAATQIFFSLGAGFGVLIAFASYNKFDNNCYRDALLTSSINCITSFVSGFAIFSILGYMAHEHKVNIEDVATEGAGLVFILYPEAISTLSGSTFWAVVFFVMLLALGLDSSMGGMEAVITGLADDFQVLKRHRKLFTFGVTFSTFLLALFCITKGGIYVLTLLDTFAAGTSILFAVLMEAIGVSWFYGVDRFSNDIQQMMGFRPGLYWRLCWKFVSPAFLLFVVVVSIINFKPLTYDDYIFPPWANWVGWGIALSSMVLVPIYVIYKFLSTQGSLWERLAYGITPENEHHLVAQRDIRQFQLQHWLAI
Chain of Cannabinoid receptor 1 (P21554 whole entry): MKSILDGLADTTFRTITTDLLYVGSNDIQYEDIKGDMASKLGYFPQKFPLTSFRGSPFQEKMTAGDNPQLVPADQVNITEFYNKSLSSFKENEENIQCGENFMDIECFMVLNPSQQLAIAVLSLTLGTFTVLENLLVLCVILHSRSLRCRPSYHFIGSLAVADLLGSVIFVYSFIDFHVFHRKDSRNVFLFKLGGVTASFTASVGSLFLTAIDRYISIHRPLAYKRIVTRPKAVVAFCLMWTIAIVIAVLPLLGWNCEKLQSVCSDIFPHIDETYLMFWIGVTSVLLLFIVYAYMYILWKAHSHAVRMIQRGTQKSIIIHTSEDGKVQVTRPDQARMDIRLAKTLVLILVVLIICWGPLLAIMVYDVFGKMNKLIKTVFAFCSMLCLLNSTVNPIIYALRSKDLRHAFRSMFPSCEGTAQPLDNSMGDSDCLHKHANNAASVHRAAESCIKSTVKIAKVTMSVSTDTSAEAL
Chain of cGMP-inhibited 3',5'-cyclic phosphodiesterase 3A (Q14432 whole entry): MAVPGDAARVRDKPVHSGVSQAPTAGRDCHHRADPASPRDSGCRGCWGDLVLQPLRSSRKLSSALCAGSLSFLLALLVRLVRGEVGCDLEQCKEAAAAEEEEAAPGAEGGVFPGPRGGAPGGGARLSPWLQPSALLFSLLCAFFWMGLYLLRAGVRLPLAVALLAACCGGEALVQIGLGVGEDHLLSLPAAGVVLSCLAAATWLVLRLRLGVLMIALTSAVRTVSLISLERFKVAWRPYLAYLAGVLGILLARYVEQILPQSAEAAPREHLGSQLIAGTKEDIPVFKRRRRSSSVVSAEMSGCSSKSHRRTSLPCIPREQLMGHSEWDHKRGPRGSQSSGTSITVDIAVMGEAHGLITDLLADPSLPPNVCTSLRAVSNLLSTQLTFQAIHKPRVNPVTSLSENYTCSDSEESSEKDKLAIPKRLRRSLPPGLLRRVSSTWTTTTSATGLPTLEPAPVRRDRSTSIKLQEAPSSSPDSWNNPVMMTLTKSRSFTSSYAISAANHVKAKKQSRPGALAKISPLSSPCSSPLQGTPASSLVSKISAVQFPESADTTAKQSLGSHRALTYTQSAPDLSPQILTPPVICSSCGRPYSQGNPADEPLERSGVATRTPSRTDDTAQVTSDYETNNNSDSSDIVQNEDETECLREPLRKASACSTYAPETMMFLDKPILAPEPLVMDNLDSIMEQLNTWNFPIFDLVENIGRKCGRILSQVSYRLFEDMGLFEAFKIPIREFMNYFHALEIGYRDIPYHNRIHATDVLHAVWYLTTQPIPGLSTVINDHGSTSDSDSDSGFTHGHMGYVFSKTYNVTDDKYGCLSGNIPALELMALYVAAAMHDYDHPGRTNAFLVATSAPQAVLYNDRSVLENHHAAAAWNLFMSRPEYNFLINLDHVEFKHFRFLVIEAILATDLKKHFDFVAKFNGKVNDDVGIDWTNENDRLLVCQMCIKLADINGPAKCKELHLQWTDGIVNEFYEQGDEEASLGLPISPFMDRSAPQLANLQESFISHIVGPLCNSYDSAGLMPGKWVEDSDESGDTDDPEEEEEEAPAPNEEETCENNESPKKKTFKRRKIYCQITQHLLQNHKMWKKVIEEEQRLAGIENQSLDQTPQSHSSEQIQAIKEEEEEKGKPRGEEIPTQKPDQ

| Compound | AC50 (Cannabinoid receptor 1) | AC50 [1] | AC50 [2] | AC50 [3] | AC50 [4] | AC50 [5] | AC50 [6] | AC50 (Motilin receptor) | AC50 (Adenosine receptor A1) | AC50 [7] | AC50 [8] | AC50 (Thromboxane A2 receptor) |
| --- | --- | --- | --- | --- | --- | --- | --- | --- | --- | --- | --- | --- |
| CCCCCCOC(=O)NC(=N)c1ccc(NCc2nc3cc(C(=O)N(CCC(=O)OCC)c4ccccn4)ccc3n2C)cc1 [DABIGATRAN ETEXILATE] | > 30 µM | > 30 µM | 6.3 µM | > 30 µM | > 30 µM | > 30 µM | > 30 µM | > 30 µM | > 30 µM | > 30 µM | – | – |
| O=C(O)c1nn(Cc2ccc(Cl)cc2Cl)c2ccccc12 [LONIDAMINE] | > 30 µM | > 30 µM | > 30 µM | > 30 µM | > 30 µM | > 30 µM | > 30 µM | > 30 µM | > 30 µM | > 30 µM | > 30 µM | – |
| CS(=O)(=O)NC(=O)CCC/C=C\C[C@H]1C(=O)C[C@@H](O)[C@@H]1/C=C/[C@@H](O)COc1ccccc1 [SULPROSTONE] | > 30 µM | > 30 µM | > 30 µM | > 30 µM | > 30 µM | > 30 µM | > 30 µM | > 30 µM | > 30 µM | > 30 µM | > 30 µM | – |
| O=C(O)c1ccc2nc(-c3cc(Cl)cc(Cl)c3)oc2c1 | – | 24 µM | > 30 µM | > 30 µM | > 30 µM | > 30 µM | > 30 µM | > 30 µM | > 30 µM | > 30 µM | > 30 µM | > 30 µM |
| CC(=O)OCC1=C(C(=O)O)N2C(=O)[C@@H](NC(=O)Cc3cccs3)[C@H]2SC1 [CEPHALOTHIN] | > 30 µM | > 30 µM | > 30 µM | > 30 µM | > 30 µM | > 30 µM | > 30 µM | > 30 µM | > 30 µM | > 30 µM | > 30 µM | – |
| CCCCCCCC(=O)CC[C@@H]1[C@@H](C/C=C\CCCC(=O)O)[C@@H](O)C[C@H]1O [UNOPROSTONE] | > 30 µM | > 30 µM | > 30 µM | > 30 µM | > 30 µM | > 30 µM | > 30 µM | > 30 µM | > 30 µM | > 30 µM | > 30 µM | – |
| CC1NCCOC1c1ccccc1 (centres undefined) [PHENMETRAZINE] | > 30 µM | > 30 µM | 11.4 µM | > 10 µM | > 10 µM | > 10 µM | – | > 10 µM | > 30 µM | > 30 µM | > 30 µM | > 30 µM |
| COc1ccc2c3c1O[C@H]1C(=O)CC[C@H]4[C@@H](C2)N(C)CC[C@]314 [HYDROCODONE] | – | > 30 µM | > 10 µM | > 10 µM | > 10 µM | > 10 µM | > 30 µM | > 10 µM | > 30 µM | > 30 µM | > 30 µM | > 30 µM |
| OCC(CO)N[C@H]1C[C@](O)(CO)[C@@H](O)[C@H](O)[C@H]1O [VOGLIBOSE] | – | > 30 µM | > 30 µM | > 30 µM | > 30 µM | > 30 µM | > 30 µM | > 30 µM | > 30 µM | > 30 µM | > 30 µM | > 30 µM |
| CC1=C(C(=O)O)N2C(=O)[C@@H](NC(=O)[C@H](N)C3=CCC=CC3)[C@H]2SC1 [CEPHRADINE] | > 30 µM | > 30 µM | > 30 µM | > 30 µM | > 30 µM | > 30 µM | – | > 30 µM | > 30 µM | > 30 µM | > 30 µM | – |
| NS(=O)(=O)c1ccc(N2CCCCS2(=O)=O)cc1 | > 30 µM | > 30 µM | > 30 µM | > 30 µM | > 30 µM | > 30 µM | – | > 30 µM | > 30 µM | > 30 µM | > 30 µM | > 30 µM |
| CCC(=O)O[C@H](CC(=O)O)C[N+](C)(C)C [LEVOCARNITINE PROPIONATE] | > 30 µM | > 30 µM | > 30 µM | > 30 µM | > 30 µM | > 30 µM | – | > 30 µM | > 30 µM | > 30 µM | > 30 µM | – |
| CCC(=O)[C@@]1(C)[C@H](C)C[C@H]2[C@@H]3CCC4=CC(=O)C=C[C@]4(C)[C@H]3[C@@H](O)C[C@@]21C [RIMEXOLONE] | – | > 30 µM | > 10 µM | > 10 µM | > 10 µM | > 10 µM | – | > 10 µM | > 10 µM | > 30 µM | > 30 µM | > 10 µM |
| CC(=O)OCC1=C(C(=O)O)N2C(=O)[C@@H](NC(=O)CSc3ccncc3)[C@H]2SC1 [CEPHAPIRIN] | – | > 30 µM | > 10 µM | > 10 µM | > 10 µM | > 10 µM | – | > 10 µM | > 10 µM | > 30 µM | > 30 µM | > 10 µM |
| Nc1nc(Cl)nc2c1ncn2[C@@H]1O[C@H](CO)[C@@H](O)[C@@H]1F [CLOFARABINE] | – | 6.4 µM | > 30 µM | > 30 µM | > 10 µM | > 10 µM | – | > 30 µM | 2.3 µM | > 30 µM | > 30 µM | > 30 µM |
